In US9770478B2, “Method for inhibiting neuronal cell aggregation” (NATIONAL TAIWAN NORMAL UNIVERSITY, priority 2014, dated 2017):
pEC50: −log10 of the molar value. Blank lines part the entries; values can stand above or below the compound they belong to.

How the values were obtained:
293 ATXN3/Q75-GFP cells = assay: ATXN3/Q75 aggregation assay, high-content analysis; format: cell-based, human
Protocol: Glycyrrhizin is metabolized to 18β-glycyrrhetinic acid by intestinal bacteria. Therefore, ATXN3/Q75 aggregation assay was further performed with different concentrations of the 18β-glycyrrhetinic acid (0.1˜10 μM) and SAHA (0.1 μM) by the aforementioned method, aggregation percentage was assessed by HCA system.

[1] = tested on: SH-SY5Y ATXN3/Q75-GFP cells; assay: ATXN3/Q75 aggregation assay in retinoic acid differentiated neuronal cells; format: cell-based, human; conditions: one week
Protocol: SH-SY5Y ATXN3/Q75-GFP cells were seeded in 6-well (2×10^5/well) plate, with all trans retinoic acid (10 μM, Sigma) added at seeding time. At day 2, cells were treated with G. inflata or C. longa extract (10 μg/mL), AMGZ (0.2 μM) or licochalcone A (2 nM) for 8 hr, and then doxycycline (5 μg/mL) was added to induce ATXN3/Q75-GFP expression. After one week, cells were stained with Hoechst 33342 and aggregation percentage was assessed as described. The morphologic differentiation of untreated cells including total outgrowth, processes, and branches was assessed by using HCA system.

[2] = DPPH free radical scavenging assay; format: biochemical; conditions: 100 μM DPPH; for pEC50: 30 min, room temperature
Protocol: The free radical scavenging activities of tested compounds and herbal extracts were determined using the stable 1,1-diphenyl-2-picrylhydrazyl (DPPH, Sigma) free radical assay (see Li, N.; Liu, J. H.; Zhang, J.; Yu, B. Y. Comparative evaluation of cytotoxicity and antioxidative activity of 20 flavonoids. Journal of Agricultural and Food Chemistry 56:3876-3883; 2008) with some modifications. Briefly, radical scavenging activity was measured in an ethanol mixture containing 100 μM DPPH radical solution and tested compounds (10˜200 μM) or herbal extracts (0.2˜4 mg/mL) The mixture was vortexed for 15 sec and then left to stand at room temperature for 30 min. Then, the scavenging capacity was measured by monitoring the decrease in absorbance at 517 nm by a Thermo Scientific Multiskan GO Microplate Spectrophotometer. The radical scavenging activity was calculated using the formula: 1−(absorbance of sample/absorbance of control)×100%. The antioxidative activity expressed as EC50 was defined as the concentration of the compounds required for inhibition of the formation of DPPH radicals by 50%.

HEK-293 cells = assay: IC50 cytotoxicity (MTT cell proliferation) / effective dose ratio
Protocol: H.; Kung, P. J.; Lin, T. H.; Wu, Y. C.; Wu, Y. R.; Chen, Y. C.; Lee-Chen, G. J.; Chen, C. […] Cell proliferation was measured based upon the reduction of 3-(4,5-dimethylthiazol-2-yl]-2,5-diphenyltetrazolium bromide (MTT). Briefly, 5×10^4 cells were plated into 48-well dishes, grown for 20 hr and treated with herbal extract (5˜30 mg/mL G. inflata or C. longa) or pure compound (100 nM˜1 mM AMGZ or licochalcone A). After one day, 20 μL MTT (5 mg/mL in PBS, Sigma) was added to cells and incubated for 2 hr. The absorbance of the insoluble purple formazan product was measured at 570 nm by a Bio-Tek μQuant Universal Microplate Spectrophotometer.
Then doxycycline (10 μg/mL, BD) and oxaliplatin (5 μM, Sigma) were added for 6 days.

Compound: CC1(C)[C@@H](O)CC[C@]2(C)[C@H]3C(=O)C=C4[C@@H]5C[C@@](C)(C(=O)O)CC[C@]5(C)CC[C@@]4(C)[C@]3(C)CC[C@@H]12 [18β-glycyrrhetinic acid]
ATXN3/Q75 aggregation as compared to untreated cells (293 ATXN3/Q75-GFP cells; 10 μM): 81%

Compound: CC1(C)[C@@H](O[C@H]2O[C@H](C(=O)O)[C@@H](O)[C@H](O)[C@H]2O[C@@H]2O[C@H](C(=O)O)[C@@H](O)[C@H](O)[C@H]2O)CC[C@]2(C)[C@H]3C(=O)C=C4[C@@H]5C[C@@](C)(C(=O)O)CC[C@]5(C)CC[C@@]4(C)[C@]3(C)CC[C@@H]12 [AMGZ, ammonium glycyrrhizinate]
aggregation reduction in ATXN3/Q75 expressed neuronal cells ([1]; 0.2 μM): 9% | DPPH scavenging activity ([2]; tested compounds 10˜200 μM): no detectable DPPH scavenging activity | IC50 cytotoxicity/effective dose ratio (HEK-293 cells; effective = reduced the ATXN3/Q75 aggregation to 85% or lower): > 10000

pEC50 [2]: 4.57
Compound: O=c1c(O)c(-c2ccc(O)cc2)oc2cc(O)cc(O)c12 [Kaempferol, reference compound]

Compound: O=C(CCCCCCC(=O)Nc1ccccc1)NO [SAHA, suberoylanilide hydroxamic acid, reference compound]
ATXN3/Q75 aggregation as compared to untreated cells (293 ATXN3/Q75-GFP cells; 100 nM, 8 hr pretreatment, then doxycycline and oxaliplatin 6 days): 85%

pEC50 [2]: 3.92
Compound: C=CC(C)(C)c1cc(/C=C/C(=O)c2ccc(O)cc2)c(OC)cc1O [licochalcone A]
aggregation reduction in ATXN3/Q75 expressed neuronal cells ([1]; 2 nM): 10% | IC50 cytotoxicity/effective dose ratio (HEK-293 cells; human, 1 day): 3×10^5
